Data reported in US6113896A, “Pharmaceutical compositions containing ecotin and homologs thereof” (priority 1994, dated 2000).
pKi: −log10 of the molar value. Values joined by “and” are separate entries in the source; they are usually repeats but may differ in a detail not shown here. Identical values can stand only once. “Also recorded” adds a separate entry of the source.

What was measured:
[1] = test system: TF·FVIIa; test: Specificity assay, TF·FVIIa; format: biochemical, human; details: for Percent Activity of TF/Factor VIIa: 100 nM inhibitor, ~1 h, 12.0 nM enzyme
Experimental: (§1) Specificity Assays The following assays were used to test the specificity of ecotin and the M84K and M84R mutants against various proteases. Ecotin, M84K, M84R (100 nM each), or a control blank were incubated at room temperature for ~1 h with each enzyme. The enzymes tested (enzyme concentration, buffer, substrate) were FXa (1.2 nM, Buffer A, 0.7 mM Spectrozyme fXa), thrombin (3.7 nM, Buffer A, 0.7 mM S2366), TF.cndot.FVIIa (12.0 nM, Buffer B, 0.7 mM S2366), FXIa (1.2 nM, Buffer A containing 1 mg/ml BSA, 0.7 mM S2366), activated protein C (4.3 nM, Buffer A, 0.7 mM S2366), plasmin (15 nM, Buffer A, 1 mM S2251), single chain t-PA (15 nM, Buffer A, 2.5 mM S2288), Factor XIIa (10 nM, Buffer A, 0.5 mM S2302, plasma kallikrein (10 nM, Buffer A, 0.5 mM S2302), HLE (17 nM, 0.1 M Tris, pH 7.5, 0.5 M NaCl and 0.005 % Triton X-100, 0.42 mM MeOSuc-AAPV-pNA) (SEQ ID NO:9), bovine trypsin (10 nM, Buffer A, 0.25 mM Spectrozyme fXa), and bovine chymotrypsin (10 nM, Buffer A, 1 mM Suc-AAPF-pNA) (SEQ ID NO:10). Buffer A contains 50 mM Tris, pH 7.5, 100 mM NaCl, 2 mM CaCl2 and 0.005% Triton X-100. Buffer B contains 50 mM Tris, pH 7.5, 100 mM NaCl, 10 mM CaCl2, 0.5% BSA, 60 nM TF1-243,and 1 mM CHAPS. The initial change in absorbance at 405 nm was monitored after addition of substrate. Controls lacking inhibitor and/or enzyme were also assayed to assess the uninhibited rates and the background substrate hydrolysis rates, respectively.

[2] = test system: Factor XIIa; test: Specificity assay, Factor XIIa; format: biochemical, human; details: for Percent Activity of Factor XIIa: 100 nM inhibitor, ~1 h, 10 nM enzyme
Experimental: as §1

[3] = test system: bovine chymotrypsin; test: Specificity assay, bovine chymotrypsin; format: biochemical; details: for Percent Activity of Chymotrypsin: 100 nM inhibitor, ~1 h, 10 nM enzyme; for inhibition of bovine chymotrypsin, in words: text statement
Experimental: as §1

[4] = test system: single chain t-PA; test: Specificity assay, single chain t-PA; format: biochemical, human; details: for Percent Activity of t-PA: 100 nM inhibitor, ~1 h, 15 nM enzyme
Experimental: as §1

[5] = test system: HLE; test: Specificity assay, HLE; format: biochemical, human; details: for Percent Activity of HLE: 100 nM inhibitor, ~1 h, 17 nM enzyme
Experimental: as §1

[6] = test system: bovine trypsin; test: Specificity assay, bovine trypsin; format: biochemical; details: for Percent Activity of Trypsin: 100 nM inhibitor, ~1 h, 10 nM enzyme; for inhibition of bovine trypsin, in words: text statement
Experimental: as §1

[7] = target: human FXa; test: Equilibrium inhibition constant with Factor Xa (tight-binding analysis); format: biochemical; details: for inhibition of FXa, in words: compared with wild type
Experimental: Determination of Equilibrium Inhibition Constants Apparent Ki values (Ki *) for the inhibition of the enzymes tested by ecotin and mutants were measured as follows. All reactions were performed at 25° C. Stock solutions of trypsin were quantitated by active site burst titration with MUGB as previously described (Jameson, G. W. et al., Biochem. J. 131:107-117 [1973]) using a Fluoroskan II plate reader at excitation wavelength of 355 nm and emission wavelength of 460 nm. Data was collected on a Macintosh SE20 using either Delta Soft II Fl v3.31 software (BioMetallics). Active site titrated trypsin was then used to quantitate ecotin active sites using BAPA as the substrate; a stoichiometry of 1:1 was assumed (Chung, C. H. et al., supra). Factor Xa, Factor XIIa, plasma kallikrein, or HLE were then quantitated by active site titration using ecotin as a standard, again assuming 1:1 stoichiometry. In addition, the concentration of HLE was quantitated by methods previously described using a calibrated stock of α1 -proteinase inhibitor to titrate the HLE active sites (Beatty, K. et al., J. Biol. Chem. 255:3931-3934 [1980]); the same HLE active site concentration was determined using both ecotin and α1 -proteinase inhibitor. The substate for FXa was Spectrozyme fXa (0.5 mM); the substrate for FXIIa (0.5 mM) and plasma kallikrein was S2302 (0.5 mM); the substrate for HLE was MeOSuc-Ala-Ala-Pro-Val-pNA (0.4 mM). There was good agreement upon comparison of the protein concentrations determined by amino acid analysis, Bradford analysis (Bradford, M. M. Anal. Biochem. 72:248-254 (1976) or active site titrations for trypsin, ecotin, FXa, FXIIa, plasma kallikrein, and HLE.
Therefore, apparent equilibrium dissociation values (Ki *) were determined using methods derived for tight-binding inhibitors (Morrison, J. F. Biochim. Biophys. Acta 185:269-286 [1969]), (Bieth, J. in Proteinase Inhibitors (Fritz, H., Tschesche, H., Greene, L. J. and Truscheit, E., Ed.) pp 463-469, Springer-Verlag, New York [1974]). Data were fit by nonlinear regression analysis to equation 1 and values for Ki * were determined. [formula] where α is the fractional activity (steady-state inhibited rate divided by the uninhibited rate), [Eo ] is the total enzyme concentration, and [Io ] is the total ecotin concentration. Since the inhibitor and substrate compete for the same site, the true Ki value is related to Ki^* by the expression Ki =Ki */(1+[S]/Km), where Km is the Michaelis constant for the substrate, and [S] is the substrate concentration.
a. […] Following a 1 hour incubation at room temperature to reach equilibration of the enzyme.cndot.inhibitor complex, 20 μl of 5 mM Spectrozyme fXa was added, and the steady-state rate of product formation measured by monitoring the change in absorbance at 405 nm. The Km for Spectrozyme fXa with FXa under these conditions was determined to be 0.23 mM by linear regression analysis of Lineweaver-Burke plots.

[8] = test system: plasmin; test: Specificity assay, plasmin; format: biochemical, human; details: for Percent Activity of Plasmin: 100 nM inhibitor, ~1 h, 15 nM enzyme
Experimental: as §1

[9] = text statement, listed as ecotin

Substance	Percent Activity of TF/Factor VIIa [1] [%]	inhibition of TF·FVIIa, in words ([1]; text statement)	Percent Activity of Factor XIIa [2] [%]	inhibition of FXIIa, in words ([2]; text statement)	Percent Activity of Chymotrypsin [3] [%]	Percent Activity of t-PA [4] [%]	inhibition of t-PA, in words ([4]; text statement)	Percent Activity of HLE [5] [%]	inhibition of HLE, in words ([5]; text statement)	Percent Activity of Trypsin [6] [%]	Percent Activity of Plasmin [8] [%]	inhibition of plasmin, in words ([8]; text statement)	inhibition of bovine chymotrypsin, in words [3]	inhibition of bovine trypsin, in words [6]	inhibition of FXa, in words [7]	also measured
Ecotin: E. coli periplasmic protein having the 142 amino acid residue sequence reported by McGrath et al.; recombinant, P1 Met84	99	did not effectively inhibit	0	potently inhibited	0	100	did not effectively inhibit	0	potently inhibited	0	100	did not effectively inhibit	–	–	–	inhibition of TF·FVIIa, in words [1, 9]: little or no inhibition; also recorded: No inhibition; also recorded: does not inhibit; inhibition of t-PA, in words [4, 9]: little or no inhibition; also recorded: No inhibition; pKi ([7]; apparent value, 0.5 mM Spectrozyme fXa, read-out: Ki* (apparent equilibrium dissociation value) with FXa): 10.27 and 10.33; inhibition of plasmin, in words [8, 9]: little or no inhibition
M84K	92	Neither ecotin, the M84R or M84K mutants inhibited	0	still potently inhibited	1	100	Neither ecotin, the M84R or M84K mutants inhibited	85	effectively diminished inhibition; also recorded: no longer inhibited	0	9	significant inhibition	significantly inhibited	significantly inhibited	slightly more potent as FXa inhibitors; also recorded: slightly more potent than the wild type inhibitor	inhibition of TF·FVIIa, in words ([1]; listed as P1 Lys mutant): did not inhibit; inhibition of FXIIa, in words ([2]; listed as P1 Lys mutant): significantly inhibited; inhibition of t-PA, in words ([4]; listed as P1 Lys mutant): did not inhibit; inhibition of HLE, in words ([5]; listed as P1 Lys mutant): did not inhibit; inhibition of plasmin, in words ([8]; listed as P1 Lys mutant): significantly inhibited
M84R	87	Neither ecotin, the M84R or M84K mutants inhibited	1	still potently inhibited	0	100	Neither ecotin, the M84R or M84K mutants inhibited	88	effectively diminished inhibition; also recorded: no longer inhibited	0	10	significant inhibition	significantly inhibited	significantly inhibited	slightly more potent as FXa inhibitors; also recorded: slightly more potent than the wild type inhibitor	inhibition of TF·FVIIa, in words ([1]; listed as P1 Arg mutant): did not inhibit; inhibition of FXIIa, in words ([2]; listed as P1 Arg mutant): significantly inhibited; inhibition of t-PA, in words ([4]; listed as P1 Arg mutant): did not inhibit; inhibition of HLE, in words ([5]; listed as P1 Arg mutant): did not inhibit; inhibition of plasmin, in words ([8]; listed as P1 Arg mutant): significantly inhibited
